In patent US11771661B2, “Method of treating post-traumatic stress disorder” (ICAHN SCHOOL OF MEDICINE AT MOUNT SINAI, priority 2013, dated 2023):
“And” between values parts separate entries of the source, which are not always exact repeats. Identical values can stand only once.

Assays:
[1] = test system: patients with chronic PTSD; assay: Example 2: randomized, double-blind, midazolam-controlled crossover trial of IV ketamine, symptom ratings; format: in vivo, human; conditions: for decrease in CAPS score: at 7 days, single infusion study; for CAPS Total (Week 1), mean / CAPS Total (Week 2), mean / CGI-I (Week 1), mean / CGI-I (Week 2), mean / IES-R Total (Week 1), mean / IES-R Total (Week 2), mean: by treatment group (drug given first); for CAPS Total (Week 1) / CAPS Total (Week 2) / CGI-I (Week 1) / CGI-I (Week 2) / IES-R Total (Day 10) / IES-R Total (Week 1) / IES-R Total (Week 2): individual responder patients, after first infusion; for IES-R_response No, Percent of total / IES-R_response Yes, Percent of total: of all 35 patients; for IES-R_response No, Frequency / IES-R_response Yes, Frequency: response = 50% improvement in IES-R score at 24 hours post-infusion; for IES-R_response No, Row Pct: share of non-responders; for IES-R_response Yes, Row Pct: share of responders; for IES-R_response No, Col Pct / IES-R_response Yes, Col Pct (responded after infusion): share of the treatment group; for IES-R_response Yes, Col Pct (responded after infusion): 24 hours post-infusion
Source text: Patients with chronic PTSD were enrolled in a controlled study. […] Exclusion criteria included lifetime history of psychotic or bipolar disorder, current bulimia or anorexia nervosa, alcohol abuse or dependence in the previous three months, serious unstable medical illness or sleep apnea, active suicidal or homicidal ideation on presentation, or current use of any psychotropic medications. All patients underwent a physical examination and laboratory screening including routine hematologic, biochemical and urine toxicology testing, as well as an electrocardiogram to rule out unstable medical illness and active substance use. To receive the second IV infusion, a CAPS score of at least 50 was required prior to the second infusion. The Institutional Review Board at Mount Sinai approved the study, and informed consent was obtained from all study participants.
Study participants were free of concomitant psychotropic medications for two weeks prior to randomization and for the duration of the study. For each procedure day, patients were assigned to receive a single IV infusion of ketamine hydrochloride (0.5 mg/kg) or midazolam (0.045 mg/kg), administered over 40 minutes. Order of infusions (ketamine-midazolam or midazolam-ketamine) was randomly assigned and administrations were two weeks apart. […] Only the research pharmacy was aware of drug identity, and all study personnel, including investigators, anesthesiologists, raters, patients and data analysts were blinded to randomization order.
Following admission and an overnight fast, an indwelling catheter was placed in the antecubital vein of the non-dominant arm. Pulse, blood pressure, pulse-oximetry and ECG monitoring were instituted (see Murrough J et al. Antidepressant efficacy of ketamine in treatment-resistant major depression: a two-site, randomized controlled trial. The American Journal of Psychiatry. 2013 Oct. 1; 170(10):1134-42). Ratings were administered by a trained rater during the infusion and at 240 minutes after the start of the infusion. A different rater, blinded to the ratings during post-infusion on infusion, administered ratings at pre-infusion baseline, 24 hours (Day 1) post-infusion (before patients were discharged from the hospital), 48 hours (Day 2), 72 hours (Day 3), and 7 days (Day 7) post-infusion. Ratings were also administered at 10 and 13 days post-infusion, though data analyses focused on the first week post-infusion due to the expected duration of ketamine action. Patients were instructed to abstain from taking psychotropic medications and from using alcohol or substances of abuse for the duration of the trial. As described above, patients who scored ≥50 on the CAPS 2 weeks after the first infusion received an infusion of the second study drug.
The primary outcome was PTSD symptom severity at 24 hours post-infusion, assessed with the Impact of Event Scale—Revised (IES-R). Twenty-four hours post-infusion was selected as the primary endpoint, as acute sedating and other side effects were expected to have resolved, while potential symptom improvement was expected to persist at 24 hours. Secondary outcome measures included the Montgomery-Asberg Depression Rating Scale (MADRS), the Quick Inventory of Depressive Symptomatology, Self-Report (QIDS-SR), and Clinical Global Impression-Severity (CGI-S) and -Improvement (GCI-I) scales administered by a study clinician at 24 hours, 48 hours, 72 hours and 7 days post-infusion. The IES-R was also administered at 48 hours, 72 hours, and 7 days post-infusion. Additionally, the CAPS was administered 7 days post-infusion.
A mixed-model approach was employed to test effects of treatment, period, and carryover.

[2] = Side effects of IV administration of ketamine; format: in vivo, human
Protocol: IV administration of ketamine can be on an as needed basis, e.g., when symptoms of PTSD appear. For IV administration, ketamine (e.g., doses of at least 0.5 mg/kg) may be administered over a period of 40 minutes. IV administration may be continued for up to 1 week, or longer. IV administration of ketamine may also be effected at least twice, at least three times, at least four times, at least five time, at least six times, at least seven times per week, and may be continued over a period of two, three, four, five, six, seven, eight, nine or 10 weeks, or more. […] Any side effects observed are typically mild, e.g., euphoria, elevated BP, increased libido, perceptual disturbances, and furthermore these effects typically abate within 80 minutes post-infusion.

[3] = test system: patients with treatment resistant depression (TRD), co-morbid current PTSD; assay: Example 1: open-label ketamine infusion in treatment resistant depression patients, case studies with co-morbid PTSD; format: in vivo, human; conditions: for IES score: baseline 48
Protocol: In a ketamine infusion study in patients with treatment resistant depression (TRD), ketamine (0.5 mg/kg IV) was administered open-label and combined with pre-infusion treatment with a single oral dose of lamotrigine (300 mg) or placebo administered under double-blind conditions. Preliminary analyses were recently performed on a sample of 16 patients. […] A strong positive correlation between individual childhood trauma (abuse and/or neglect) and the antidepressant response (MADRS: r=0.55, p=0.03; QIDS-SR: r=0.59, p=0.02).
The effect of ketamine on Hamilton Anxiety Rating Scale (HAM-A) scores was also measured. A strong positive correlation between the magnitude of the ketamine-induced reduction in HAM-A scores and personal history of childhood trauma measured using the Childhood Trauma Questionnaire (CTQ; n=15, r=0.59, p=0.02) was observed. […] Patient A, suffered from distressing intrusive memories, nightmares, flashbacks, hypervigilance, poor concentration, and depressed mood. Patient A described their PTSD and MDD symptoms as chronic, but having intensified over time, due to ongoing events in their life.
After observing the magnitude of the therapeutic effect of ketamine in Patient A, TRD patients with a co-morbid current PTSD diagnosis were administered the Clinician-Administered PTSD Scale (CAPS) and the Impact of Events Scale (IES) before and after ketamine infusion. […] The day after ketamine infusion, Patient M reported that they felt an “intellectual distance” from the emotional content of prior traumatic events that allowed them to feel more in control. Patient M further described feeling relieved of a compulsion to continuously analyze their past, identify ways in which they might have circumvented trauma, and subsequently punish themself for their failure to avoid trauma. One week post-infusion, Patient M's CAPS score had dropped by 90% and could be considered a remission (defined as CAPS<20). Two weeks post-infusion, Patient M maintained their “intellectual distance” from the emotional content associated with their trauma.

[4] = test system: patients with chronic PTSD; assay: Example 2: side effects (PRISE, CADSS, BPRS, YMRS item 1) after IV infusion; format: in vivo, human
Protocol: General side effects and possible dissociative, psychotomimetic, and manic symptoms were measured with the Patient-Rated Inventory of Side Effects (PRISE), Clinician-Administered Dissociative States Scale (CADSS), Brief Psychiatric Rating Scale (BPRS) and Young Mania Rating Scale (YMRS) item 1 (elevated mood), respectively.
Secondary analyses also examined the effect of depression on PTSD symptoms and the interaction between treatment and depression. A mixed model approach was used to examine the effects of treatment, baseline MADRS score, and 24-hour MADRS score using only first-period data. Safety and tolerability were analyzed using descriptive statistics.

[5] = test system: treatment-resistant major depression; conditions: 0.5 mg/kg intravenous infusion over 40 minutes; cited from earlier work
[6] = IN vs IV; cited from earlier work
breakthrough pain (BTP) = conditions: cited from earlier work
[7] = cited from earlier work
[8] = 0.5 mg/kg IV open-label, 16 TRD patients
[9] = ketamine vs midazolam, cross-over 24 hours, n = 29
[10] = ketamine vs midazolam, first infusion 24 hours, n = 41

Cc1ncc2n1-c1ccc(Cl)cc1C(c1ccccc1F)=NC2 [midazolam]
number of patients whose symptoms remained significantly improved ([1]; at 2 weeks, CAPS score <50, drug given first): one | decrease in CAPS score [1]: 13 (sd=18) | CAPS Total (Week 1), mean [1]: 65.69 | CAPS Total (Week 2), mean [1]: 70.81 | CGI-I (Week 1), mean [1]: 3.80 | CGI-I (Week 2), mean [1]: 3.91 | IES-R Total (Week 1), mean [1]: 36.32 | IES-R Total (Week 2), mean [1]: 32.51 | CAPS Total (Week 1) [1]: 50 | CAPS Total (Week 2) [1]: 30 | CGI-I (Week 1) [1]: 4 | CGI-I (Week 2) [1]: 4 | IES-R Total (Day 10) [1]: 6 | IES-R Total (Week 1) [1]: 12.57 | IES-R Total (Week 2) [1]: 5 | IES-R_response No, Percent of total [1]: 31.43% | IES-R_response Yes, Percent of total [1]: 14.29% | IES-R_response No, Frequency [1]: 11 | IES-R_response Yes, Frequency [1]: 5 | IES-R_response No, Row Pct [1]: 55.00 Pct | IES-R_response Yes, Row Pct [1]: 33.33 Pct | IES-R_response No, Col Pct [1]: 68.75 Pct | IES-R_response Yes, Col Pct (responded after infusion) [1]: 31.25%

CNC1(c2ccccc2Cl)CCCCC1=O (centres unmarked) [ketamine, 2-(2-chlorophenyl)-2-(methylamino)-cyclohexanone]
serious adverse events caused by IV administration [2]: No serious adverse events | time by which mild side effects typically abate post-infusion [2]: ≤ 80 min | MADRS clinical depression scores, baseline to 24 hours post-infusion [3, 8]: reduced clinical depression scores | self-reported mood, QIDS-SR [3, 8]: improved | IES score ([3]; Patient M, +1 week): 5 | CAPS score ([3]; Patient M, +1 week, baseline 81): 8 | IES score ([3]; Patient M, +2 weeks): 15 | CAPS score ([3]; Patient M, +2 weeks, baseline 81): 27 | IES score ([3]; Patient M, +40 min post-ketamine): 33 | IES score ([3]; Patient M, +240 min): 3 | IES score ([3]; Patient M, +24 hours): 16 | IES score ([3]; Patient M, +72 hours): 5 | drop in CAPS score ([3]; Patient M, one week post-infusion, baseline 81): 90% | CAPS score, mean difference ketamine-midazolam ([1]; 7 days post-infusion, p-value=0.20): 8.7 | decrease in CAPS score [1]: 27 (sd=20) | CAPS Total (Week 1), mean [1]: 54.00 | CAPS Total (Week 2), mean [1]: 56.21 | CGI-I (Week 1), mean [1]: 3.22 | CGI-I (Week 2), mean [1]: 3.15 | IES-R Total (Week 1), mean [1]: 25.76 | IES-R Total (Week 2), mean [1]: 25.67 | CAPS Total (Week 1) [1]: 16 and 45 and 41 and 33 and 54 and 22 and 13 | CAPS Total (Week 2) [1]: 11 (2×) and 25 and 28 and 19 and 44 and 45 | CGI-I (Week 1) [1]: 2 (5×) and 3 | CGI-I (Week 2) [1]: 2 (3×) and 3 | IES-R Total (Day 10) [1]: 4 and 3 (3×) and 15 and 25.14 and 28 | IES-R Total (Week 1) [1]: 1 and 8.38 and 10 and 2 and 18 and 17 and 3 | IES-R Total (Week 2) [1]: 6 and 1 and 14 and 0 and 26 and 28 and 2 | IES-R, differences of least squares means estimate ([1]; ketamine vs midazolam, collapsed across 24, 48, 72 hours and seven days, first period, p=0.046): −8.32 | QIDS-SR, differences of least squares means estimate ([1]; ketamine vs midazolam, collapsed across time, first period, p=0.050): −2.73 | MADRS, differences of least squares means estimate ([1]; ketamine vs midazolam, collapsed across time, first period, p=0.052): −3.99 | CGI-I, mean difference [1, 9]: 1.2 | CGI-S, mean difference [1, 9]: 1.0 | IES-R Avoidance, mean difference [1, 9]: 4.8 | IES-R Hyperarousal, mean difference [1, 9]: 3.9 | IES-R Re-experiencing, mean difference [1, 9]: 4.0 | IES-R total, mean difference [1, 9]: 12.7 | MADRS, mean difference [1, 9]: 3.7 | QIDS, mean difference [1, 9]: 0.17 | CGI-I, mean difference [1, 10]: 0.80 | CGI-S, mean difference [1, 10]: 0.90 | IES-R Avoidance, mean difference [1, 10]: 3.3 | IES-R Hyperarousal, mean difference [1, 10]: 2.6 | IES-R Re-experiencing, mean difference [1, 10]: 2.6 | IES-R total, mean difference [1, 10]: 8.6 | MADRS, mean difference [1, 10]: 2.7 | QIDS, mean difference [1, 10]: 1.5 | IES-R_response No, Percent of total [1]: 25.71% | IES-R_response Yes, Percent of total [1]: 28.57% | β of treatment assignment on IES-R score at 24 hours post-infusion ([1]; period-1 analysis, 41 patients, ketamine vs midazolam, p=0.0496): 6.5 | IES-R_response No, Frequency [1]: 9 | IES-R_response Yes, Frequency [1]: 10 | IES-R_response No, Row Pct [1]: 45.00 Pct | IES-R_response Yes, Row Pct [1]: 66.67 Pct | IES-R_response No, Col Pct [1]: 47.37 Pct | IES-R_response Yes, Col Pct (responded after infusion) [1]: 52.63% | psychotic or manic symptoms ([4]; BPRS, YMRS item 1): No emergence of significant psychotic or manic symptoms | patients requiring acute beta-blocker treatment for blood pressure elevation ([4]; during infusion, systolic >180 and/or diastolic >100): Three | time by which dissociative symptoms had resolved ([4]; from start of infusion): ≤ 120 min | time of peak of dissociative symptoms ([4]; from start of infusion): 40 min | safety and tolerability ([4]; single dose IV): safe and well-tolerated | duration of improvements in depression [5]: up to 1 week | serious adverse events [5]: no serious adverse events | time to improvements in depression post-injection [5]: ≤ 2 h | intranasal plasma levels (pain treatment) lower than intravenous ketamine studies in depression [6]: 3-4 fold | breakthrough pain vs placebo (breakthrough pain (BTP); 10-50 mg intranasal in incremental 10 mg doses every 90 seconds): lower BTP | side effects (breakthrough pain (BTP); 10-50 mg intranasal): very few side effects | dose at which mild adverse effects (dysphoria, hallucinations) can occur ([7]; in vivo): greater than 50 mg | total intranasal dose usually required for mild adverse effects ([7]; intranasal): greater than 100 mg
